One test relates to MV-4-11. Briefly: Antiproliferation assay MV-4-11 (Assay 7). It is filed as cell-based. As to conditions: MV-4-11 cells, CellTiter-Glo, single determinations, read-out: IC50 Antiproli MV-4-11. Put shortly:
(§1)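 Luminescent ATP-based viability (CellTiter-Glo) measured after 72 h of compound treatment at 37 °C. A day 0 plate recorded at time zero served as the starting reference for proliferation.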

Test [1] relates to SUDHL5. Briefly: Induction of caspase-3/7 activity, SUDHL5 (Assay 4). It is filed as cell-based. As to conditions: Homo sapiens, SU-DHL-5, 3 h, SUDHL5 cells, Caspase-Glo 3/7, median. The procedure, abridged:
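DLBCL lines treated with compounds for 3 h at 37° C.; caspase-3/7 activity read by Caspase-Glo 3/7 luminescence. Medium-only background subtracted; EC50 fitted with bottom fixed at 1 and top set to reference compound's maximal induction.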

Test [2] relates to SUDHL5. Briefly: Antiproliferation assay SUDHL5 (Assay 7). As to conditions: Homo sapiens, SU-DHL-5, 72 h, SUDHL5 cells, CellTiter-Glo, median, read-out: IC50 Antiproli SUDHL5 [M] (median). It is filed as cell-based. Put shortly:
as §1
(Cellular ATP, detected with luciferase, serves as a proxy for viable cell number.)

For another test, the target named is BCL-2 (Homo sapiens (Human), UniProt P10415). Briefly: Protein-protein interaction assay BCL-2/Bad BH3 peptide (BCL-2 assay), TR-FRET. It is filed as binding. As to conditions: BCL-2/Bad BH3 peptide TR-FRET; median. How it is done:
Assay 3 Protein-Protein Interaction assay: BCL-2/Bad BH3 Peptide (BCL-2 Assay)
The dose-dependent inhibition by the compounds described in this invention of the interaction between BCL-2 and the BH3 domain of Bad (both human) was determined using a steady state binding competition assay with time-resolved fluorescence energy transfer (TR-FRET) readout. For that purpose BCL-2 (amino acids 1-211, C-terminal fused to a hexahistidine (6× His) tag (SEQ ID 5) and a synthetic Bad BH3-derived peptide of sequence Biotin-PEG2-PEG2-NLWAAQRYGRELRR-Nle-SDEFVDSFKK-amide (SEQ ID 4) served as protein receptor and tracer ligand respectively. The recombinant BCL-2 protein (expressed in E. coli) was purchased from BPS Bioscience (San Diego, Calif., USA). The Bad BH3-derived peptide can be obtained from e.g. Biosyntan (Berlin, Germany).
In the assay 11 different concentrations of each compound (0.1 nM, 0.33 nM, 1.1 nM, 3.8 nM, 13 nM, 44 nM, 0.15 μM, 0.51 μM, 1.7 μM, 5.9 μM and 20 μM) were typically measured as duplicates in the same microtiter plate. For that, 100-fold concentrated DMSO solutions were prepared by serial dilutions (1:3.4) of a 2 mM stock solution in a clear, 384-well microtiter plate (Greiner Bio-One, Frickenhausen, Germany). From there, 50 nl were transferred in a dark test plate (Greiner Bio-One, Frickenhausen, Germany). The assay was initiated by addition of 2 μl of a 2,5-fold concentrated His-BCL-2 solution (usually for a 1 nM end concentration in 5 μl reaction volume) in aqueous assay buffer [50 mM Tris/HCl pH 7, 100 mM sodium chloride (NaCl), 50 mM potassium fluoride (KF), 0.005% Tween-20, 2 mM DTT, 0.1% bovine gamma globulin (BGG)] to the compounds in the assay plate. This was followed by a 10-minute incubation step at 22° C. for pre-equilibration of the putative complex between His-BCL-2 and the compounds. After that, 3 μl of a 1.67-fold concentrated solution (in assay buffer) consisting of Bad BH3-derived peptide (1 nM end concentration) and TR-FRET detection reagents [1.67 nM anti-His-Eu cryptate and 1.67 nM streptavidin-XL665 (both from Cisbio Bioassays, Codolet, France)], were added.
The mixture was incubated in the dark for one hour at 22° C. and then overnight at 4° C. The formation of BCL-2/Bad complexes was determined by measuring the resonance energy transfer of the anti-His-Eu-cryptate antibody to the streptavidin-XL665 present in the reaction. For that purpose, the fluorescence emission at 620 nm and 665 nm after excitation at 330-350 nm was measured in a TR-FRET measuring instrument, for instance a Rubystar or a Pherastar (both from BMG Lab Technologies, Offenburg, Germany) or a Viewlux (Perkin-Elmer). The ratio of the emission at 665 nm and at 622 nm was used as indicator of the amount of BCL-2/Bad complexes present.
The resulting data (ratio) were normalized, taking 0% inhibition as the mean value of control measurements (usually 32 data points) where all reagents were included. In this case 50 nl DMSO were used instead of compounds. A 100% inhibition corresponded to the mean value of control measurements (usually 32 data points) where all reagents except BCL-2 were included. IC50 values were determined by regression analysis based on a 4 parameter equation (minimum, maximum, IC50, Hill; Y=Max+(Min−Max)/(1+(X/IC50)^Hill) using the Screener Software (Genedata).
(In general: In TR-FRET formats the signal depends on donor and acceptor labels being close together.)

Values joined by “and” are separate entries in the source; they are usually repeats but may differ in a detail not shown here. Equal values may be shown once. Read-outs that look alike come from different tables or passages of the source. Where only a bound is given, the exact number is not on record here.

BCL-2, sequence (P10415 1-211): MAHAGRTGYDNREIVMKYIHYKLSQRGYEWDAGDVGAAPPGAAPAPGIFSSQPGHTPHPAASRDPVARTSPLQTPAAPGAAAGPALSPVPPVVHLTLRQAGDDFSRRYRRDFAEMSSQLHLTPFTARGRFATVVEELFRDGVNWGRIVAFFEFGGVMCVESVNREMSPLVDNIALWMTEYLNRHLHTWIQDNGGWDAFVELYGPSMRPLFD

As for `CCc1c2c(nn1C)COCCCCn1c(C(=O)O)c(CCCOc3cccc4c3CCCC4)c3ccc(F)c-2c31` (racemic) [Example 29, (rac)-12-ethyl-13-fluoro-11-methyl-1-(3-((5,6,7,8-tetrahydronaphthalen-1-yl)oxy)propyl)-4,5,6,7,9,11-hexahydropyrazolo[4′,3′:9,10][1]oxa[6]azacycloundecino[8,7,6-hi]indole-2-carboxylic acid], the IC50 – broadly, the concentration that inhibits the measured activity by half – in the test with MV-4-11 (Homo sapiens, MV4-11, 72 h) was 2.04 µM; in the test with MV-4-11 (72 h), 2.55 µM; in the test with SUDHL5 [2] it was 1.4e-06 M; against BCL-2 it was over 20 µM. The EC50 (commonly the concentration at which the effect is half-maximal) in the test on SUDHL5 [1] worked out at 1200 nM.

As for `CCc1c2c(nn1C)COCCCCn1c(C(=O)O)c(CCCOc3cc(C)c(Cl)c(C)c3)c3ccc(F)c-2c31` (racemic) [Example 31, (rac)-1-(3-(4-chloro-3,5-dimethylphenoxy)propyl)-12-ethyl-13-fluoro-11-methyl-4,5,6,7,9,11-hexahydropyrazolo[4′,3′:9,10][1]oxa[6]azacycloundecino[8,7,6-hi]indole-2-carboxylic acid], the IC50 was 6.07 µM in the test on MV-4-11 (Homo sapiens, MV4-11, 72 h); 8.25 µM in the test with MV-4-11 (72 h); 3e-06 M with SUDHL5 [2]; over 20 µM against BCL-2. In addition, in the test on SUDHL5 [1], the EC50 amounted to 2500 nM.

As to `Cc1nn(C)c2c1-c1c(F)ccc3c(CCCOc4cccc5cc(F)ccc45)c(C(=O)O)n(c13)CCCCOC2` (racemic) [Example 32, (rac)-13-fluoro-1-(3-((6-fluoronaphthalen-1-yl)oxy)propyl)-10,12-dimethyl-4,5,6,7,9,10-hexahydropyrazolo[4′,3′:9,10][1]oxa[6]azacycloundecino[8,7,6-hi]indole-2-carboxylic acid], the IC50 is 4.85 µM in the test on MV-4-11 (Homo sapiens, MV4-11, 72 h); 4.8 µM and 4.75 µM with MV-4-11 (72 h); 8.5e-07 M in the test with SUDHL5 [2]; over 20 µM on BCL-2. For the same molecule, in the test on SUDHL5 [1], the EC50 was 800 nM.

As to `Cc1nn(C)c2c1-c1c(F)ccc3c(CCCOc4ccc(F)c5ccccc45)c(C(=O)O)n(c13)CCCCOC2` (racemic) [Example 33, (rac)-13-fluoro-1-(3-((4-fluoronaphthalen-1-yl)oxy)propyl)-10,12-dimethyl-4,5,6,7,9,10-hexahydropyrazolo[4′,3′:9,10][1]oxa[6]azacycloundecino[8,7,6-hi]indole-2-carboxylic acid], the IC50 in the test with MV-4-11 (Homo sapiens, MV4-11, 72 h) is 11.2 µM; in the test on SUDHL5 [2] it was 3e-06 M; at BCL-2, over 20 µM. In the test with SUDHL5 [1], the EC50 came out at 2900 nM.

For the molecule `Cc1nn(C)c2c1-c1c(F)ccc3c(CCCOc4cccc5c4CCCC5)c(C(=O)O)n(c13)CCCCOC2` (racemic) [Example 34, (rac)-13-fluoro-10,12-dimethyl-1-(3-((5,6,7,8-tetrahydronaphthalen-1-yl)oxy)propyl)-4,5,6,7,9,10-hexahydropyrazolo[4′,3′:9,10][1]oxa[6]azacycloundecino[8,7,6-hi]indole-2-carboxylic acid], the IC50 with MV-4-11 (Homo sapiens, MV4-11, 72 h) is 11.6 µM; with MV-4-11 (72 h), 12.3 µM; in the test on SUDHL5 [2], 1.7e-06 M; against BCL-2, over 20 µM. The molecule further came in with an EC50 with SUDHL5 [1] of 1800 nM.

As for `Cc1nn(C)c2c1-c1c(F)ccc3c(CCCOc4cccc5c4CCC5)c(C(=O)O)n(c13)CCCCOC2` (racemic) [Example 35, (rac)-1-(3-((2,3-dihydro-1H-inden-4-yl)oxy)propyl)-13-fluoro-10,12-dimethyl-4,5,6,7,9,10-hexahydropyrazolo[4′,3′:9,10][1]oxa[6]azacycloundecino[8,7,6-hi]indole-2-carboxylic acid], the IC50 is 12.4 µM in the test on MV-4-11 (Homo sapiens, MV4-11, 72 h); 6e-06 M in the test with SUDHL5 [2]; over 20 µM against BCL-2. The molecule also came in with an EC50 with SUDHL5 [1] of 6200 nM.

For `Cc1cc(OCCCc2c(C(=O)O)n3c4c(c(F)ccc24)-c2c(C)nn(C)c2COCCCC3)cc(C)c1Cl` (racemic) [Example 36, (rac)-1-(3-(4-chloro-3,5-dimethylphenoxy)propyl)-13-fluoro-10,12-dimethyl-4,5,6,7,9,10-hexahydropyrazolo[4′,3′:9,10][1]oxa[6]azacycloundecino[8,7,6-hi]indole-2-carboxylic acid], the IC50 was 16.4 µM in the test on MV-4-11 (Homo sapiens, MV4-11, 72 h); 3.2e-06 M in the test with SUDHL5 [2]; over 20 µM on BCL-2. Moreover, in the test on SUDHL5 [1], the EC50 turned out to be 3500 nM.

On to `CCc1nn(C)c2c1-c1c(F)ccc3c(CCCOc4cccc5ccccc45)c(C(=O)O)n(c13)CCCCOC2` (racemic) [Example 37, (rac)-12-ethyl-13-fluoro-10-methyl-1-(3-(naphthalen-1-yloxy)propyl)-4,5,6,7,9,10-hexahydro-pyrazolo[4′,3′:9,10][1]oxa[6]azacycloundecino[8,7,6-hi]indole-2-carboxylic acid], for which the IC50 in the test on MV-4-11 (Homo sapiens, MV4-11, 72 h) is 8.4 µM; with MV-4-11 (72 h), 6.8 µM and 7.54 µM; in the test with SUDHL5 [2], 1.6e-06 M; against BCL-2, over 20 µM. In the test with SUDHL5 [1], this molecule yielded an EC50 of 1700 nM.

In the case of `CCc1nn(C)c2c1-c1c(F)ccc3c(CCCOc4cccc5c4CCCC5)c(C(=O)O)n(c13)CCCCOC2` (racemic) [Example 44, (rac)-12-ethyl-13-fluoro-10-methyl-1-(3-((5,6,7,8-tetrahydronaphthalen-1-yl)oxy)propyl)-4,5,6,7,9,10-hexahydropyrazolo[4′,3′:9,10][1]oxa[6]azacycloundecino[8,7,6-hi]indole-2-carboxylic acid], the half-maximal inhibitory concentration (IC50) in the test with MV-4-11 (Homo sapiens, MV4-11, 72 h) was 9.83 µM; in the test with SUDHL5 [2], 5.5e-07 M; against BCL-2, over 20 µM. Moreover, in the test with SUDHL5 [1], the EC50 turned out to be 1600 nM.

Regarding `CCc1nn(C)c2c1-c1c(F)ccc3c(CCCOc4cccc5c4CCC5)c(C(=O)O)n(c13)CCCCOC2` (racemic) [Example 45, (rac)-1-(3-((2,3-dihydro-1H-inden-4-yl)oxy)propyl)-12-ethyl-13-fluoro-10-methyl-4,5,6,7,9,10-hexahydropyrazolo[4′,3′:9,10][1]oxa[6]azacycloundecino[8,7,6-hi]indole-2-carboxylic acid], the IC50 in the test on MV-4-11 (Homo sapiens, MV4-11, 72 h) was 6.2 µM; in the test with MV-4-11 (72 h), 6.56 µM; in the test with SUDHL5 [2], 1.9e-06 M; at BCL-2, over 20 µM. The molecule further had an EC50 in the test on SUDHL5 [1] of 1400 nM.

Consider `CCc1nn(C)c2c1-c1c(F)ccc3c(CCCOc4cc(C)c(Cl)c(C)c4)c(C(=O)O)n(c13)CCCCOC2` (racemic) [Example 46, (rac)-1-(3-(4-chloro-3,5-dimethylphenoxy)propyl)-12-ethyl-13-fluoro-10-methyl-4,5,6,7,9,10-hexahydropyrazolo[4′,3′:9,10][1]oxa[6]azacycloundecino[8,7,6-hi]indole-2-carboxylic acid], for which the IC50 in the test with MV-4-11 (Homo sapiens, MV4-11, 72 h) was 21 µM; in the test with MV-4-11 (72 h), 11.4 µM; in the test on SUDHL5 [2], 2.9e-06 M; against BCL-2, over 20 µM. In the test with SUDHL5 [1], this molecule registered an EC50 of 2500 nM.

The record behind these values is US11286263B2, “Macrocyclic fluorine substituted indole derivatives” (The Broad Institute, Inc., priority 2017, dated 2022).
